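In this assay, cells in 96-well plates receive the compound at five concentrations for 48 hours. Endpoints are linearly interpolated between the surrounding concentrations. The concentration for 50% growth inhibition is given as GI50.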 Activity calls are given as the source filed them. Cut-off read from the data, not from the text of the source: active = GI50 up to about 1.1 µM and inactive = higher.
Key:
Experiment in all cases: NCI-60 cell line screen, 48 h
[1] = test system: 786-0
[2] = test system: ACHN
[3] = test system: CAKI-1
[4] = test system: CCRF-CEM
[5] = test system: DU-145
[6] = test system: HCT-116
[7] = test system: IGROV-1
[8] = test system: K562
[9] = test system: MCF7
[10] = test system: MDA-N
[11] = test system: NCI-H23
[12] = test system: OVCAR-3
[13] = test system: PC-3
[14] = test system: RXF 393
[15] = test system: SK-MEL-28
[16] = test system: SK-MEL-5
[17] = test system: SNB-19
[18] = test system: SNB-75
[19] = test system: SW-620
[20] = test system: OVCAR-8

Measured: GI50

CSc1cnc2ccccc2c1SC1CN(Cc2ccccc2)c2ccccc2C1=O (stereo not given)
inactive: [1] > 100 µM | [2] > 100 µM | [3] > 100 µM | [4] > 100 µM | [5] > 100 µM | [6] > 100 µM | [7] > 100 µM | [8] > 100 µM | [9] > 100 µM | [10] > 100 µM | [11] > 100 µM | [12] > 100 µM | [13] > 100 µM | [14] > 100 µM | [15] > 100 µM | [16] > 100 µM | [17] > 100 µM | [18] 83.4 µM | [19] > 100 µM

c1ccc(-c2nc(-c3ccccc3SSc3ccccc3-c3nc(-c4ccccc4)nn3-c3ccccc3)n(-c3ccccc3)n2)cc1
inactive: [1] > 100 µM | [2] > 100 µM | [3] > 100 µM | [4] > 100 µM | [5] > 100 µM | [6] > 100 µM | [7] > 100 µM | [8] > 100 µM | [9] > 100 µM | [10] > 100 µM | [11] > 100 µM | [12] > 100 µM | [20] > 100 µM | [13] > 100 µM | [14] > 100 µM | [15] > 100 µM | [17] > 100 µM | [18] > 100 µM | [19] > 100 µM

CC(C)CCCC(C)[C@H]1CC[C@H]2[C@@H]3CC[C@H]4C[C@@H](CCC=C(c5cc(Cl)c(O)c(C(=O)OC(C)(C)C)c5)c5cc(Cl)c(O)c(C(=O)OC(C)(C)C)c5)CC[C@]4(C)[C@H]3CC[C@]12C (stereo not given in full)
inactive: [1] > 50 µM | [3] > 50 µM | [4] > 50 µM | [5] > 50 µM | [6] > 50 µM | [7] > 50 µM | [8] > 50 µM | [9] > 50 µM | [10] > 50 µM | [11] > 50 µM | [12] > 50 µM | [13] > 50 µM | [14] > 50 µM | [15] > 50 µM | [16] > 50 µM | [17] > 50 µM | [18] > 50 µM | [19] > 50 µM

COC(=O)C(Cc1c[nH]c2ccccc12)NC(=O)c1ccc(-c2ccc(Cl)cc2Cl)o1 (stereo not given)
inactive: [1] 43.3 µM | [2] 38.4 µM | [3] 42.7 µM | [4] 20.6 µM | [5] 71.6 µM | [6] 22.3 µM | [7] 32.6 µM | [8] 26 µM | [9] 24.4 µM | [10] 48.2 µM | [11] 73.3 µM | [12] 36.4 µM | [20] 54.1 µM | [13] 7.96 µM | [14] 28.5 µM | [15] 65.6 µM | [17] > 100 µM | [18] 35.5 µM | [19] 41.1 µM
